The source of these data is patent publication US10030006B2, “Coumarin based Hsp90 inhibitors with urea and ether substituents” (University of Kansas, priority 2013, dated 2018).

Format in all cases: cell-based
In assay [1] the test system is SKBr3 and MCF-7 cell lines. As to the kind of experiment: Anti-proliferative activity against both breast cancer cell lines (results in words). As to conditions: SKBr3 and MCF-7, Tables 1-5. The protocol: Cells were maintained in a 1:1 mixture of Advanced DMEM/F12 (Gibco) supplemented with non-essential amino acids, L-glutamine (2 mM), streptomycin (500 μg/mL), penicillin (100 units/mL), and 10% FBS. Cells were grown to confluence in a humidified atmosphere (37° C., 5% CO2), seeded (2000/well, 100 μL) in 96-well plates, and allowed to attach overnight. Compound at varying concentrations in DMSO (1% DMSO final concentration) was added, and cells were returned to the incubator for 72 h. At 72 h, the number of viable cells was determined using an MTS/PMS cell proliferation kit (Promega) per the manufacturer's instructions. Cells incubated in 1% DMSO were used at 100% proliferation, and values were adjusted accordingly. IC50 values were calculated from separate experiments performed in triplicate using GraphPad Prism.
The anti-proliferative activity of these compounds is evaluated against two breast cancer cell lines, SKBr3 (estrogen receptor negative, Her2 over-expressing breast cancer cells) and MCF-7 (estrogen receptor positive breast cancer cells).

Assay [2] concerns MCF-7 (estrogen receptor positive breast cancer cells). Put plainly: Anti-proliferation assay (MTS/PMS, 72 h), MCF-7. To be noted: read-out: MCF-7.
Assay [3] concerns SKBr3 (estrogen receptor negative, Her2 over-expressing breast cancer cells). As to the kind of experiment: Anti-proliferation assay (MTS/PMS, 72 h), SKBr3. As to conditions: read-out: SKBr3.
The mark [4] stands for this setting: Homo sapiens, MCF7, Table 1, modified benzamide coumarin derivatives.
[5] abbreviates: Homo sapiens, SK-BR-3, Table 1, modified benzamide coumarin derivatives.
Setting [6] is: Homo sapiens, MCF7, Table 2, modified benzamide and biphenylamide derivatives (in μM).
Where [7] appears, read: Homo sapiens, SK-BR-3, Table 2, modified benzamide and biphenylamide derivatives (in μM).
The mark [8] stands for this setting: Table 5, alkylether derivatives with cyclic N-substitutions.

Where two headings read alike, the source gives them in different places.

Take `Cc1c(OC2CCN(C)CC2)ccc2cc(NC(=O)c3ccc(O)c(Cl)c3)c(=O)oc12` [Compound 22e, 3-chloro-4-hydroxy-N-(8-methyl-7-(1-methylpiperidin-4-yloxy)-2-oxo-2H-chromen-3-yl)benzamide]: the “anti-proliferative activity (in words)” value in assay [1] was “diminished activity”. For the same compound, the IC50 in assay [2] (setting [4]) was determined as 1.48 ± 0.14 µM; in assay [3] (setting [5]) it was 2.3 ± 0.57 µM.
In the case of `COc1cccc(-c2cc(C(=O)Nc3cc4ccc(OC5CCN(C)CC5)c(C)c4oc3=O)ccc2OC(C)=O)c1` [Compound 32a, 3′-methoxy-5-(8-methyl-7-(1-methylpiperidin-4-yloxy)-2-oxo-2H-chromen-3-ylcarbamoyl)biphenyl-2-yl acetate], in assay [1], the “anti-proliferative activity (in words)” value is “maintains inhibitory activity”. The IC50 in assay [2] (setting [6]) is 0.91 µM; in assay [3] (setting [7]), 0.92 ± 0.06 µM.
As for `CC(=O)Oc1ccc(C(=O)Nc2cc3ccc(OC4CCN(C)CC4)c(C)c3oc2=O)cc1Cl` [Compound 21e, 2-chloro-4-(8-methyl-7-(1-methylpiperidin-4-yloxy)-2-oxo-2H-chromen-3-ylcarbamoyl)phenyl acetate], the “anti-proliferative activity (in words)” value in assay [1] is “diminished activity”. Besides, the IC50 stood at 1.61 ± 0.16 µM in assay [2] (setting [4]) and 3.5 ± 0.01 µM in assay [3] (setting [5]).
As for `CCCN(CCC)CCCOc1ccc2cc(NC(=O)c3ccc(O)c(CC=C(C)C)c3)c(=O)oc2c1C` [Compound 68e, N-(7-(3-(dipropylamino)propoxy)-8-methyl-2-oxo-2H-chromen-3-yl)-4-hydroxy-3-(3-methylbut-2-en-1-yl)benzamide], in assay [1], the “anti-proliferative activity (in words)” value is reported as “did not show any activity at the highest concentration”. For the same compound, the IC50 in assay [2] (Homo sapiens, MCF7, Table 4, alkylamino analogues) was over 50 µM; in assay [3] (Homo sapiens, SK-BR-3, Table 4, alkylamino analogues), over 50 µM.
Consider `COc1ccc(C(=O)Nc2cc3ccc(OC4CCN(C)CC4)c(C)c3oc2=O)cc1-c1cccc(O)c1` [Compound 33b, 3′-hydroxy-6-methoxy-N-(8-methyl-7-(1-methylpiperidin-4-yloxy)-2-oxo-2H-chromen-3-yl)biphenyl-3-carboxamide], for which the “anti-proliferative activity (in words)” value in assay [1] is listed as “increases activity almost three-fold”. The IC50 was found to be 0.38 ± 0.08 µM in assay [2] (setting [6]) and 0.31 ± 0.04 µM in assay [3] (setting [7]).
For `CC(C)=CCc1cc(C(=O)Nc2cc3ccc(OCCCN(C)Cc4ccccc4)c(C)c3oc2=O)ccc1O` [Compound 70h, N-(7-(3-(benzyl(methyl)amino)propoxy)-8-methyl-2-oxo-2H-chromen-3-yl)-4-hydroxy-3-(3-methylbut-2-en-1-yl)benzamide], in assay [1], the “anti-proliferative activity (in words)” value is recorded as “greatly decreased activity”. Besides, the IC50 was determined as 11.5 ± 4.16 µM in assay [2] (Homo sapiens, MCF7, Table 5, alkylether derivatives with cyclic N-substitutions) and 10.7 ± 0.49 µM in assay [3] (Homo sapiens, SK-BR-3, Table 5, alkylether derivatives with cyclic N-substitutions).
As to `COC(=O)CNCCCOc1ccc2cc(NC(=O)c3ccc(O)c(CC=C(C)C)c3)c(=O)oc2c1C` [Compound 68l], the “anti-proliferative activity (in words)” value in assay [1] is “decreased anti-proliferative activity”. The IC50 in assay [2] (Table 4, alkylamino analogues) amounted to 2.82 ± 0.27 µM; in assay [3] (Table 4, alkylamino analogues), 1.06 ± 0.11 µM.
Turning to `CC(=O)Oc1ccc(C(=O)Nc2cc3ccc(OC4CCN(C)CC4)c(C)c3oc2=O)cc1` [Compound 21b, 4-(8-methyl-7-(1-methylpiperidin-4-yloxy)-2-oxo-2H-chromen-3-ylcarbamoyl)phenyl acetate], the “anti-proliferative activity (in words)” value in assay [1] is reported as “decreased anti-proliferative activities”. For the same compound, the IC50 in assay [2] (setting [4]) was determined as 1.62 ± 0.04 µM; in assay [3] (setting [5]), 1.67 ± 0.2 µM.
With `CC(C)=CCc1cc(C(=O)Nc2cc3ccc(OCCCNc4ccccc4)c(C)c3oc2=O)ccc1O` [Compound 70c], in assay [1], the “anti-proliferative activity (in words)” value is “inactive”. In addition, the IC50 in assay [2] (setting [8]) and in assay [3] (setting [8]) was over 50 µM in each case.
For the compound `CC(C)=CCc1cc(C(=O)Nc2cc3ccc(OCCCNCC(=O)O)c(C)c3oc2=O)ccc1O` [Compound 68m], in assay [1], the “anti-proliferative activity (in words)” value is “decreased anti-proliferative activity”. The IC50 in assay [2] (Table 4, alkylamino analogues) is 18.1 ± 5.35 µM; in assay [3] (Table 4, alkylamino analogues), 7.57 ± 2.86 µM.
Consider `C=CCc1cc(C(=O)Nc2cc3ccc(OC4CCN(C)CC4)c(C)c3oc2=O)ccc1OC(C)=O` [Compound 21a, 2-allyl-4-((8-methyl-7-((1-methylpiperidin-4-yl)oxy)-2-oxo-2H-chromen-3-yl)carbamoyl)phenyl acetate], for which, in assay [1], the “anti-proliferative activity (in words)” value is recorded as “decreased anti-proliferative activities”. For the same compound, the IC50 was 2 ± 0.18 µM in assay [2] (setting [4]) and 2.26 ± 0.12 µM in assay [3] (setting [5]).
The matching figures for `Cc1c(OC2CCN(C)CC2)ccc2cc(NC(=O)c3ccc4c(c3)CCC(C)(C)O4)c(=O)oc12` [Compound 20, 2,2-dimethyl-N-(8-methyl-7-(1-methylpiperidin-4-yloxy)-2-oxo-2H-chromen-3-yl)chroman-6-carboxamide]: “decreased anti-proliferative activities”, 5.01 ± 0.01 µM and 3.46 ± 0.02 µM.
For `CC(C)=CCc1cc(C(=O)Nc2cc3ccc(OCCCN(C)c4ccccc4)c(C)c3oc2=O)ccc1O` [Compound 70d], the “anti-proliferative activity (in words)” value in assay [1] was “inactive”. Also, the IC50 in assay [2] (setting [8]) and in assay [3] (setting [8]) was over 50 µM throughout.
For `CC(C)=CCc1cccc(C(=O)Nc2cc3ccc(OC4CCN(C)CC4)c(C)c3oc2=O)c1` [Compound 21c, N-(8-methyl-7-((1-methylpiperidin-4-yl)oxy)-2-oxo-2H-chromen-3-yl)-3-(3-methylbut-2-en-1-yl)benzamide], in assay [1], the “anti-proliferative activity (in words)” value is on record as “two-fold lower activity”. Besides, the IC50 in assay [2] (setting [4]) is 2.1 ± 0.08 µM; in assay [3] (setting [5]) it was 1.68 ± 0.12 µM.
Consider `CC(C)=CCc1cc(C(=O)Nc2cc3ccc(OCCCNCC(N)=O)c(C)c3oc2=O)ccc1O` [Compound 68n], for which the “anti-proliferative activity (in words)” value in assay [1] is recorded as “decreased anti-proliferative activity”. The IC50 amounted to 1.46 ± 0.35 µM in assay [2] (Table 4, alkylamino analogues) and 2.29 ± 0.47 µM in assay [3] (Table 4, alkylamino analogues).
Turning to `COc1cccc(-c2cc(C(=O)Nc3cc4ccc(OC5CCN(C)CC5)c(C)c4oc3=O)ccc2O)c1` [Compound 33a, 6-hydroxy-3′-methoxy-N-(8-methyl-7-(1-methylpiperidin-4-yloxy)-2-oxo-2H-chromen-3-yl)biphenyl-3-carboxamide], in assay [1], the “anti-proliferative activity (in words)” value is “maintains inhibitory activity”. Also, the IC50 in assay [2] (setting [6]) was determined as 0.81 ± 0.14 µM; in assay [3] (setting [7]), 0.86 ± 0.16 µM.
Take `CC(C)=CCc1cc(C(=O)Nc2cc3ccc(OCCCNCCO)c(C)c3oc2=O)ccc1O` [Compound 68o]: the “anti-proliferative activity (in words)” value in assay [1] is reported as “retains activity”. Also, the IC50 was found to be 1.56 ± 0.09 µM in assay [2] (Table 4, alkylamino analogues) and 0.61 ± 0.06 µM in assay [3] (Table 4, alkylamino analogues).
Take `C=CCc1cc(C(=O)Nc2cc3ccc(OC4CCN(C)CC4)c(C)c3oc2=O)ccc1O` [Compound 22a, 3-allyl-4-hydroxy-N-(8-methyl-7-((1-methylpiperidin-4-yl)oxy)-2-oxo-2H-chromen-3-yl)benzamide]: in assay [1], the “anti-proliferative activity (in words)” value was “decreased anti-proliferative activities”. The IC50 in assay [2] (setting [4]) turned out to be 2.17 ± 0.11 µM; in assay [3] (setting [5]) it was 2.43 ± 0.04 µM.
Take `CC(C)=CCc1cc(C(=O)Nc2cc3ccc(OCCCN4CCOCC4)c(C)c3oc2=O)ccc1O` [Compound 64, 4-hydroxy-N-(8-methyl-7-(3-morpholinopropoxy)-2-oxo-2H-chromen-3-yl)-3-(3-methylbut-2-en-1-yl)benzamide]: the “anti-proliferative activity (in words)” value in assay [1] was “inactive at the highest concentrations tested”.
In the case of `Cc1c(OC2CCN(C)CC2)ccc2cc(NC(=O)c3ccc(O)c(CCC(C)C)c3)c(=O)oc12` [Compound 19, 4-hydroxy-3-isopentyl-N-(8-methyl-7-(1-methylpiperidin-4-yloxy)-2-oxo-2H-chromen-3-yl)benzamide], the “anti-proliferative activity (in words)” value in assay [1] was “no effect on inhibitory activity”. Moreover, the figures for the IC50 in assay [2] (setting [4]) and in assay [3] (setting [5]) were 1.25 ± 0.39 µM and 0.6 ± 0.01 µM, respectively.
Take `CC(C)=CCc1cc(C(=O)Nc2cc3ccc(OCCCN4CCN(C)CC4)c(C)c3oc2=O)ccc1O` [Compound 62, 4-hydroxy-N-(8-methyl-7-(3-(4-methylpiperazin-1-yl)propoxy)-2-oxo-2H-chromen-3-yl)-3-(3-methylbut-2-en-1-yl)benzamide]: the “anti-proliferative activity (in words)” value in assay [1] is given as “maintain activity comparable to the N-methylpiperidine derivative”.
On the same count and under the same terms, then `CC(C)=CCc1cc(C(=O)Nc2cc3ccc(OCCCN4CCCC4)c(C)c3oc2=O)ccc1O` [Compound 66, 4-hydroxy-N-(8-methyl-2-oxo-7-(3-(pyrrolidin-1-yl)propoxy)-2H-chromen-3-yl)-3-(3-methylbut-2-en-1-yl)benzamide], with “restores activity”.
Same read-out and setting: then `CC(C)=CCc1cc(C(=O)Nc2cc3ccc(OCCCN4CCCCC4)c(C)c3oc2=O)ccc1O` [Compound 65, 4-hydroxy-N-(8-methyl-2-oxo-7-(3-(piperidin-1-yl)propoxy)-2H-chromen-3-yl)-3-(3-methylbut-2-en-1-yl)benzamide], with “inactive at the highest concentrations tested”.
